In US8765961B2, “Near infrared fluorescent imaging agent” (FUJIFILM Corporation, priority 2009, dated 2014):

Biological target: T1, albumin (Bos taurus, UniProt P02769)
T1 construct: The test substance was dissolved to 5 μg/mL in calf serum; from tissue; host or cells: calf serum
Experiment: Serum protein binding rate test by ultracentrifugation, albumin fraction
Assay type: in vitro ADME
Settings: 5 μg/mL in calf serum, 37° C., density gradient centrifugation, HPLC
Procedure: The test substance was dissolved to 5 μg/mL in calf serum, vibrated for 20 minutes at 37° C., and subjected to density gradient centrifugation (1,000,000×g, 24 h) using NaBr. Following the centrifugation, the dye concentrations in the albumin fraction, lipoprotein fraction, and the remaining fractions were quantified by HPLC.

T1 sequence (P02769 25-607): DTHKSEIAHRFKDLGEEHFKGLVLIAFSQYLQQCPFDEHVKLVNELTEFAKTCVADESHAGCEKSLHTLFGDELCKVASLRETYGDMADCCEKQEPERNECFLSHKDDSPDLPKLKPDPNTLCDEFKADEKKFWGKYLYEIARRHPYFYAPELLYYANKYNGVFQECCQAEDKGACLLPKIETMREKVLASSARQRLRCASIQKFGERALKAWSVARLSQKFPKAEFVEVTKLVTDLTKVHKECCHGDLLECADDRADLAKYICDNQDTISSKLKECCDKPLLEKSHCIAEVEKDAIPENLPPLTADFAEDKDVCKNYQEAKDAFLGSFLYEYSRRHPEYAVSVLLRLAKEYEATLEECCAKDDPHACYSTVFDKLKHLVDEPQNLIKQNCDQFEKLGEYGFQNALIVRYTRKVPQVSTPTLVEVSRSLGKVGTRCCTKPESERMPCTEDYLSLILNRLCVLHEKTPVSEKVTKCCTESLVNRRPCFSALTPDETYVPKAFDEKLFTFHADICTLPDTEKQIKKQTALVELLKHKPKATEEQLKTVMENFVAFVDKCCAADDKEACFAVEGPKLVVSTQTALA

- Protein binding rate (%) Albumin: 18%
Compound: CC1(C)C(/C=C/C=C/C=C/C=C2\N(CCCCS(=O)(=O)O)c3ccc4ccccc4c3C2(C)C)=[N+](CCCCS(=O)(=O)[O-])c2ccc3ccccc3c21 [ICG, indocyanine green]
